Patent US5045566A, “Novel imidate insecticides” (ICI Americas Inc., priority 1989, dated 1991)

Legend:
Type in all cases: in vivo
[1] = tested on: Housefly [Musca domestica]; experiment: Housefly contact mortality in dishes (HF), 48 hours; conditions: μg of test compound per 25 female flies
In short: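 LC50 (μg compound per 25 female flies) derives from dosage-mortality curves of 48 h kill. Flies, females 1-2 days old, were held 25 per cage over a dish coated with dried acetone deposit, starting at 100 μg per cage and descending.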

[2] = tested on: Black Bean Aphid [Aphis fabae (Scop.)]; experiment: Black bean aphid spray test on nasturtium (BBA), 48 hours; conditions: percent of test compound in sprayed solution
In short: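 LC50, given as percent test compound in the sprayed liquid, was calculated from dosage-mortality curves using concentrations from 0.05% downward. Sprays in 50:50 acetone-water went to runoff on ~5 cm nasturtiums carrying 25-50 aphids of mixed ages, one day after infestation. Deaths were counted 48 h later under greenhouse conditions.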

[3] = tested on: Tobacco Budworm [Heliothis virescens (Fabricius)] larvae; experiment: Tobacco budworm larvae, contact (TBW-C), 5 days; conditions: percent in solution, second-instar larvae
Method: The compounds in Tables 1 and 2 above were tested for insecticidal activity using the following testing procedures. LC50 values, based on the results of these tests and calculated according to dosage-mortality curves, are expressed in Table 3.
Tobacco Budworm [Heliothis virescens (Fabricius)]:
(a) Contact: Test compounds were diluted in a 50-50 acetone-water solution. Cotton (Gossypium sp.) cotyledons were immersed in the test solutions for 2-3 seconds and placed on a wire screen to dry. The dried leaves were placed in petri dishes containing a moistened piece of filter paper and infested with 5 second-instar tobacco budworm larvae. The dishes were placed in a high humidity chamber for 5 days, and percent mortality of the larvae recorded. Test concentrations ranged from 0.1% downward. The LC-50 values are expressed below in Table 3 under the heading "TBW-C" in terms of percent of the test compound in the solution.

[4] = tested on: Tobacco Budworm [Heliothis virescens (Fabricius)] eggs; experiment: Tobacco budworm eggs (TBW-E); conditions: percent in solution; 2-day old eggs
In short: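 Paper towel patches bearing 2-day old eggs were dipped in acetone solutions of compound, then set in petri dishes over larval rearing medium at 78° F. Mortality was scored once all control eggs had hatched and larvae were feeding. LC50, from dosage-mortality curves, is given as percent compound in solution.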

[5] = tested on: Cabbage Looper [Trichoplusia ni (Hubner)]; experiment: Cabbage looper leaf dip (CL), 3-5 days; conditions: percent in solution, second-instar larvae
In short: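 Compounds in 50-50 acetone-water were applied by dipping squash cotyledons (about 1×1.5 in) for 2-3 s; dried leaves went into petri dishes on moist filter paper with 5 second-instar larvae under high humidity. Mortality was scored after 3-5 days; LC50 from dosage-mortality curves, as percent compound in solution.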

[6] = tested on: Aster Leafhopper [Macrosteles fascifrens (Stal)]; experiment: Aster leafhopper on dipped oat seedlings (LH), 48 hours; conditions: percent in solution, adults/nymphs
In short: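 LC50 values, given as percent of test compound in the dip solution, were derived from dosage-mortality curves over concentrations from 0.05% downward. Mortality was counted 48 hours after ten leafhopper adults/nymphs were enclosed on treated seedlings. The seedlings were oats, about 10 cm tall, briefly dipped in 50-50 acetone-water.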

[7] = tested on: Maize weevil [Sitophilus zeamais (Motschulsky)]; experiment: Maize weevil on dipped corn seeds (MW), 48 hours; conditions: percent in solution, adult weevils
In short: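 LC50, given as percent of compound in dipping solution, comes from dosage-mortality curves over concentrations descending from 0.01%. Four corn seeds soaked 2-3 s in 50:50 acetone:water solution were dried and held with 10 adult weevils, about 25° C, mortality read after 48 h.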

## ClC(Cl)C(=Nc1ccccc1)OCc1cccc(Oc2ccccc2)c1 [Compound 41]
[1]
  LC50 HF: 4.5 µg
[2]
  LC50 BBA: 0.001%
[3]
  LC50 TBW C (contact): 0.0035%
[4]
  LC50 TBW E (eggs): 0.04%
[5]
  LC50 CL: 0.015%

## Fc1ccc(N=C(OCc2cccc(Oc3ccccc3)c2)C(Cl)Cl)cc1 [Compound 44]
[1]
  LC50 HF: 3 µg
[2]
  LC50 BBA: 0.0006%
[3]
  LC50 TBW C (contact): < 0.1%
[4]
  LC50 TBW E (eggs): 0.06%

## Cc1c(F)cccc1N=C(OCc1cccc(Oc2ccccc2)c1)C(C)C [Compound 73]
[1]
  LC50 HF: 25 µg
[2]
  LC50 BBA: 0.003%
[3]
  LC50 TBW C (contact): 0.005%
[4]
  LC50 TBW E (eggs): 0.025%
[5]
  LC50 CL: 0.004%

## Cc1ccc(F)cc1N=C(OCc1cccc(Oc2ccccc2)c1)C(C)C [Compound 74]
[1]
  LC50 HF: 25 µg
[2]
  LC50 BBA: 0.001%
[3]
  LC50 TBW C (contact): 0.0025%
[4]
  LC50 TBW E (eggs): 0.025%
[5]
  LC50 CL: 0.005%

## COc1ccc(N=C(OCc2cccc(Oc3ccccc3)c2)C(C)C)cc1Cl [Compound 95]
[1]
  LC50 HF: 10 µg
[2]
  LC50 BBA: 0.001%
[3]
  LC50 TBW C (contact): 0.004%
[4]
  LC50 TBW E (eggs): 0.025%
[5]
  LC50 CL: 0.0025%

## CC(C)C(=Nc1cccc(C(F)(F)F)c1)OCc1cccc(Oc2ccc(Cl)cn2)c1 [Compound 518]
[1]
  LC50 HF: > 100 µg
[2]
  LC50 BBA: > 0.05%
[4]
  LC50 TBW E (eggs): > 0.1%
[5]
  LC50 CL: 0.00075%
[6]
  LC50 LH: > 0.05%
[7]
  LC50 MW: > 0.01%

## C#CC(OC(=Nc1cccc(C(F)(F)F)c1)C(C)C)c1cccc(Oc2ccccc2)c1 (stereo not drawn) [Compound 519]
[1]
  LC50 HF: 60 µg
[2]
  LC50 BBA: > 0.05%
[4]
  LC50 TBW E (eggs): > 0.1%
[5]
  LC50 CL: 0.0037%
[6]
  LC50 LH: > 0.05%
[7]
  LC50 MW: > 0.01%

## CCC(=Nc1ccc(F)c(F)c1)OCc1coc(Cc2ccccc2)c1 [Compound 524]
[1]
  LC50 HF: 5.2 µg
[2]
  LC50 BBA: > 0.05%
[4]
  LC50 TBW E (eggs): > 0.1%
[5]
  LC50 CL: > 0.1%
[6]
  LC50 LH: > 0.05%
[7]
  LC50 MW: > 0.01%

## CC(C)(C)C(=Nc1ccc(F)c(F)c1)OCc1coc(Cc2ccccc2)c1 [Compound 525]
[1]
  LC50 HF: > 100 µg
[2]
  LC50 BBA: > 0.05%
[4]
  LC50 TBW E (eggs): > 0.1%
[5]
  LC50 CL: < 0.1%
[6]
  LC50 LH: > 0.05%
[7]
  LC50 MW: > 0.01%

## CC(=Nc1ccc(F)c(F)c1)OCc1coc(Cc2ccccc2)c1 [Compound 526]
[1]
  LC50 HF: 8.3 µg
[2]
  LC50 BBA: > 0.05%
[4]
  LC50 TBW E (eggs): > 0.1%
[5]
  LC50 CL: > 0.1%
[6]
  LC50 LH: > 0.05%
[7]
  LC50 MW: > 0.01%

## CC(C)C(=Nc1ccc(F)c(Cl)c1)OCc1cccc(Oc2ccc(Cl)cn2)c1 [Compound 527]
[1]
  LC50 HF: 47 µg
[2]
  LC50 BBA: 0.03%
[4]
  LC50 TBW E (eggs): 0.035%
[5]
  LC50 CL: 0.00065%
[6]
  LC50 LH: > 0.05%
[7]
  LC50 MW: > 0.01%

## CC(C)C(=Nc1ccc2c(c1)OCO2)OCc1cccc(Oc2ccc(Cl)cn2)c1 [Compound 532]
[1]
  LC50 HF: > 100 µg
[2]
  LC50 BBA: > 0.05%
[4]
  LC50 TBW E (eggs): > 0.1%
[5]
  LC50 CL: < 0.1%
[6]
  LC50 LH: > 0.05%
[7]
  LC50 MW: > 0.01%

## C#CC(OC(=Nc1ccc(F)c(Cl)c1)C(C)C)c1cccc(Oc2ccccc2)c1 (stereo not drawn) [Compound 533, N-(3-chloro-4-fluorophenyl)-O-[1-(3-phenoxyphenyl)-2-propyn-1-yl]isobutyrimidate]
[1]
  LC50 HF: 60 µg
[2]
  LC50 BBA: > 0.05%
[4]
  LC50 TBW E (eggs): > 0.1%
[5]
  LC50 CL: > 0.1%
[6]
  LC50 LH: > 0.05%
[7]
  LC50 MW: > 0.01%

## CC(C)C(=Nc1ccc(F)c(Cl)c1)OCC#CCOc1ccccc1 [Compound 534]
[1]
  LC50 HF: > 100 µg
[2]
  LC50 BBA: > 0.05%
[4]
  LC50 TBW E (eggs): > 0.1%
[5]
  LC50 CL: < 0.1%
[6]
  LC50 LH: > 0.05%
[7]
  LC50 MW: > 0.01%

## CC(C)C(=Nc1ccc(C(F)(F)F)cc1)OCc1cccc(Cc2ccccc2)c1 [Compound 535]
[1]
  LC50 HF: 41 µg
[2]
  LC50 BBA: > 0.05%
[4]
  LC50 TBW E (eggs): > 0.1%
[5]
  LC50 CL: > 0.1%
[6]
  LC50 LH: > 0.05%
[7]
  LC50 MW: > 0.01%

## Cc1c(COC(=Nc2ccc(C(C)(C)C)cc2)C(C)C)cccc1-c1ccccc1 [Compound 536]
[1]
  LC50 HF: > 100 µg
[2]
  LC50 BBA: < 0.05%
[4]
  LC50 TBW E (eggs): > 0.1%
[5]
  LC50 CL: < 0.1%
[6]
  LC50 LH: > 0.05%
[7]
  LC50 MW: > 0.01%

## CC(C)C(=Nc1ccc(F)c(Cl)c1)OCc1cccc(Cc2ccccc2)c1 [Compound 537]
[1]
  LC50 HF: 20 µg
[2]
  LC50 BBA: > 0.05%
[4]
  LC50 TBW E (eggs): > 0.1%
[5]
  LC50 CL: > 0.1%
[6]
  LC50 LH: > 0.05%
[7]
  LC50 MW: > 0.01%

## CC(C)C(=Nc1ccc([N+](=O)[O-])cc1)OCc1coc(Cc2ccccc2)c1 [Compound 539]
[1]
  LC50 HF: 22 µg
[2]
  LC50 BBA: > 0.05%
[4]
  LC50 TBW E (eggs): > 0.1%
[5]
  LC50 CL: > 0.1%
[6]
  LC50 LH: > 0.05%
[7]
  LC50 MW: > 0.01%

## CC(C)C(=Nc1ccc2c(c1)OCO2)OCc1ccnc(Oc2ccccc2)c1 [Compound 540]
[1]
  LC50 HF: > 100 µg
[2]
  LC50 BBA: > 0.05%
[4]
  LC50 TBW E (eggs): > 0.1%
[5]
  LC50 CL: < 0.1%
[6]
  LC50 LH: > 0.05%
[7]
  LC50 MW: > 0.01%

## CC(C)C(=Nc1ccc(F)c(Cl)c1)OCc1cccc(Cc2ccccc2)c1 [Compound 541]
[1]
  LC50 HF: < 100 µg
[2]
  LC50 BBA: 0.004%
[4]
  LC50 TBW E (eggs): > 0.1%
[5]
  LC50 CL: 0.001%
[6]
  LC50 LH: > 0.05%
[7]
  LC50 MW: > 0.01%

## CC(C)C(=Nc1ccc(OC(F)(F)F)cc1)OCc1cccc(Cc2ccccc2)c1 [Compound 542]
[1]
  LC50 HF: > 100 µg
[2]
  LC50 BBA: > 0.05%
[4]
  LC50 TBW E (eggs): > 0.1%
[5]
  LC50 CL: > 0.01%
[6]
  LC50 LH: > 0.05%
[7]
  LC50 MW: > 0.01%

## CC(C)C(=Nc1ccc(C(F)(F)F)cc1)OCc1cccc(Cc2ccccc2)c1 [Compound 543]
[1]
  LC50 HF: < 100 µg
[2]
  LC50 BBA: 0.003%
[4]
  LC50 TBW E (eggs): > 0.1%
[5]
  LC50 CL: 0.0008%
[6]
  LC50 LH: < 0.05%
[7]
  LC50 MW: > 0.01%

## COCc1c(F)c(F)c(COC(=Nc2ccc(C(C)(C)C)cc2)C(C)C)c(F)c1F [Compound 544]
[1]
  LC50 HF: > 100 µg
[2]
  LC50 BBA: 0.005%
[4]
  LC50 TBW E (eggs): > 0.1%
[5]
  LC50 CL: > 0.1%
[6]
  LC50 LH: > 0.05%
[7]
  LC50 MW: > 0.01%

## Cc1cccc(N=C(OCc2cccc(Oc3ccc(Cl)cc3)n2)C(C)C)c1 [Compound 545]
[1]
  LC50 HF: < 100 µg
[2]
  LC50 BBA: 0.005%
[4]
  LC50 TBW E (eggs): > 0.1%
[5]
  LC50 CL: > 0.1%
[6]
  LC50 LH: > 0.05%
[7]
  LC50 MW: > 0.01%

## C#CCc1c(F)c(F)c(COC(=Nc2cccc(C(F)(F)F)c2)C(C)C)c(F)c1F [Compound 546]
[1]
  LC50 HF: < 100 µg
[2]
  LC50 BBA: 0.001%
[4]
  LC50 TBW E (eggs): > 0.1%
[5]
  LC50 CL: 0.0001%
[6]
  LC50 LH: < 0.05%
[7]
  LC50 MW: 0.0032%

## C#CCc1c(F)c(F)c(COC(=Nc2ccc3c(c2)OCO3)C(C)C)c(F)c1F [Compound 547]
[1]
  LC50 HF: < 100 µg
[2]
  LC50 BBA: 0.0006%
[4]
  LC50 TBW E (eggs): 0.05%
[5]
  LC50 CL: 0.0005%
[6]
  LC50 LH: < 0.05%
[7]
  LC50 MW: > 0.01%

## CC(C)C(=Nc1cccc(C(F)(F)F)c1)OCC#CCOc1ccccc1 [Compound 548]
[1]
  LC50 HF: > 100 µg
[2]
  LC50 BBA: > 0.05%
[4]
  LC50 TBW E (eggs): > 0.1%
[5]
  LC50 CL: < 0.1%
[6]
  LC50 LH: > 0.05%
[7]
  LC50 MW: > 0.01%

## CC(C)C(=Nc1ccc(F)c(Cl)c1)OCc1cccc(Oc2ccccn2)c1 [Compound 549]
[1]
  LC50 HF: < 100 µg
[2]
  LC50 BBA: > 0.05%
[4]
  LC50 TBW E (eggs): > 0.1%
[5]
  LC50 CL: > 0.1%
[6]
  LC50 LH: > 0.05%
[7]
  LC50 MW: > 0.01%
